Patent publication US20040255959A1, “Method and compounds to decrease the incidence of atrial fibrillation (AF) in patients with left ventricular dysfunction” (priority 2003, published 2004)

What was measured:
[1] = test system: atrial refractory period during rapid atrial pacing; details: in vivo; cited from earlier work
[2] = test system: patients with left ventricular dysfunction; assay: Retrospective analysis of Montreal Heart Institute patients randomized in SOLVD: development of atrial fibrillation, enalapril versus placebo; type: in vivo, human
Text: The patients of the Montreal Heart Institute who were enrolled in the SOLVD trials constituted the study population. SOLVD was a multicenter, double-blinded, randomized, placebo-controlled trial which evaluated the effect of the ACEi enalapril on survival in patients with left ventricular (LV) dysfunction (ejection fraction≦35%).^12,13 The design of the study has been reported previously.^13 Briefly, from June 1986 to August 1991, 4228 patients with asymptomatic or mildly symptomatic (not requiring treatment with digitalis, diuretics or vasodilators for heart failure at study entry) LV dysfunction (LVEF≦0.35) were included in the prevention trial and 2569 patients with overt congestive HF in the treatment trial.^14 Patients were randomized to enalapril (5-20 mg/day) or placebo. Exclusion criteria included: age>80 years, unstable angina, myocardial infarction in the previous month, severe pulmonary disease, renal insufficiency (creatinine level>[…]), current ACEi use or intolerance to ACEi. Follow-up visits were scheduled 2 and 6 weeks after randomization and every 4 months until the end of the study, for a mean follow-up of 3.4 and 3.1 years for the treatment and prevention trials, respectively.
Baseline characteristics, past medical history and drug therapy at the time of enrolment were obtained from the SOLVD databases. Serial electrocardiograms (ECG) were not collected specifically for the SOLVD trials. However, the routine clinical follow-up of patients at our institution usually included a 12-lead ECG. Thus, the medical file of each patient was carefully reviewed and a single experienced cardiologist, blinded to treatment allocation, interpreted every ECG.
AF was defined as rapid oscillations or fibrillatory waves that vary in size, shape and timing, associated with an irregular, frequently rapid ventricular response. For the purposes of the study, paroxysmal AF was defined as episodes in which the patient reverted to sinus rhythm spontaneously, with medical therapy orwith a single cardioversion, whereas patients who remained in AF despite changes in medical therapy and/or cardioversion were defined as persistent AF. Episodes occurring during a 24-hour Holter monitoring were also considered. The end-points were the development and time to first occurrence of AF on either one 12-lead ECG and/or a 24-hour Holter monitoring recorded during any available follow-up visits (including research, outpatient clinic or emergency room visits). Participants with significant supraventricular arrhythmia on the baseline ECG (AF or flutter) were excluded. Patients with a history of arrhythmia (either supraventricular or ventricular) but who were in sinus rhythm on the ECG at the time of randomization were included.
The baseline characteristics of the two groups were compared using student t-test for continuous variables and chi-square test for categorical variables. The incidence of AF between the two groups was compared with the chi-square test. Time to the first occurrence of AF during the follow-up was analyzed with Kaplan-Meier curves and compared with the log-rank test. To analyze the effect of enalapril on development of AF, a Cox regression analysis was used to take into account the effect of potential confounding baseline variables (age, sex, NYHA class, history of supraventricular or ventricular arrhythmia, ischemic etiology, diabetes and ejection fraction) and time-dependent variables (systolic blood pressure, diastolic blood pressure, pulse pressure, serum potassium and drug therapy). Cox proportional-hazard models were performed for each variable with treatment (enalapril) forced in all models. Variables with a p-value≦0.2 were included in a multivariate Cox proportional hazard model.
Subgroup analysis was conducted with chi-square test. Preliminary assumptions were verified prior to all analysis. A p-value≦0.05 was considered statistically significant. […]

[3] = test system: animals with HF induced by rapid ventricular pacing; details: given at the onset of pacing, animals followed for 5 weeks; cited from earlier work
[4] = test system: patients with persistent AF; details: started 3 weeks before electrical cardioversion and combined with amiodarone; cited from earlier work
[5] = test system: patients shortly after an acute myocardial infarction with depressed LV function; details: trandolapril versus placebo, 2-4 years of follow-up in TRACE; cited from earlier work
[6] = patients with AF in enalapril group, n = 10

CCOc1nc2cccc(C(=O)O)c2n1Cc1ccc(-c2ccccc2-c2nnn[nH]2)cc1 [candesartan]
shortening of the atrial refractory period during rapid atrial pacing [1]: prevented

C[C@H](CS)C(=O)N1CCC[C@H]1C(=O)O [captopril]
shortening of the atrial refractory period during rapid atrial pacing [1]: prevented

CCOC(=O)[C@H](CCc1ccccc1)N[C@@H](C)C(=O)N1CCC[C@H]1C(=O)O [enalapril]
patients presenting ≥1 episode of AF ([2]; 2.9 years of follow-up, enalapril group n = 186, 5-20 mg/day, placebo 45): 10 patients | patients presenting ≥1 episode of AF (percentage) ([2]; 2.9 years of follow-up, enalapril group n = 186, placebo 24%, p<0.001): 5.4% | probability of remaining in sinus rhythm during follow-up ([2]; Kaplan-Meier, enalapril versus placebo, p<0.0001, FIG. 1): significantly higher | Hazard ratio for incidence of AF, Cox multivariate analysis ([2]; allocation to enalapril, 95% CI 0.11-0.44, p<0.0001): 0.22 | risk of developing AF in patients with LV dysfunction ([2]; chronic ACEi therapy with enalapril): markedly reduces | absolute risk reduction of AF ([2]; enalapril versus placebo, 2.9 years of follow-up): 18.6% | patients developing AF (percentage), patients with a history of supraventricular arrhythmia excluded ([2]; n=21 excluded, placebo 23%, p<0.0001): 4.5% | patients developing AF, patients with a history of supraventricular arrhythmia excluded ([2]; n=21 excluded, placebo 40 patients): 8 patients | AF Detection: 12-leads ECG (number) [2, 6]: 10 | AF Detection: 12-leads ECG (percentage) [2, 6]: 100% | AF Detection: Holter monitoring (number) [2, 6]: 0 (0%) | AF Detection: Holter monitoring (percentage) [2, 6]: 0 (0%) | AF Requiring: electrical cardioversion (number) [2, 6]: 1 | AF Requiring: electrical cardioversion (percentage) [2, 6]: 10% | AF Requiring: hospitalization (number) [2, 6]: 8 | AF Requiring: hospitalization (percentage) [2, 6]: 80% | Paroxysmal AF (number) [2, 6]: 8 | Paroxysmal AF (percentage) [2, 6]: 80% | Persistent AF (number) [2, 6]: 2 | Persistent AF (percentage) [2, 6]: 20% | patients developing AF, SOLVD prevention arm ([2]; prevention arm (251 patients), placebo 31 patients): 4 patients | patients developing AF (percentage), SOLVD prevention arm ([2]; prevention arm, placebo 24.6%, p<0.0001): 3.2% | patients with CHF needed to be treated to prevent one episode of AF ([2]; treated for 2.9 years): 5 patients | patients developing AF, SOLVD treatment arm ([2]; treatment arm (123 patients), placebo 14): 6 patients | patients developing AF (percentage), SOLVD treatment arm ([2]; treatment arm, placebo 22.6%, P=0.055): 9.8% | atrial fibrosis [3]: significant reduction | atrial structural changes in HF induced by rapid ventricular pacing [3]: attenuated | vulnerability of the animals to AF [3]: decreased vulnerability

CCCCC1=NC2(CCCC2)C(=O)N1Cc1ccc(-c2ccccc2-c2nnn[nH]2)cc1 [irbesartan]
effect on AF recurrence [4]: beneficial effect

CCOC(=O)[C@H](CCc1ccccc1)N[C@@H](C)C(=O)N1[C@H](C(=O)O)C[C@H]2CCCC[C@@H]21 [trandolapril]
absolute risk reduction on the incidence of AF [5]: 2.5%
